We go through 66 molecules from PubChem BioAssay AID1419 (Emory University Molecular Libraries Screening Center, 2008).

SMILES strings stand for the structures. Active and inactive are the calls of the source. How the calls were made is not given here. Bounds are passed on as bounds.

The nature of the test: blockers of an Epstein-Barr virus protein-peptide interaction – biochemical, fluorescence polarization, dose response (AID 1419). The conditions noted are these: cell-free protein-peptide binding, 2 h; for fold change: measured here: P channel fold over control, at 54 µM.

Consider `Cn1c(-c2ccc(C=O)s2)nc2c3ccccc3c3ccccc3c21`, for which the IC50 – broadly, the concentration at which inhibition is half-maximal – was 4.07 µM and the fold change was 14.6.
Taken in the same sequence, the figures for `CCN1CC=C2C(C#N)=C(N)C(C#N)(C#N)C(c3cc(Cl)ccc3Cl)C2C1` (configuration not stated) were > 54 µM (inactive) and 4.31.
Taken in the same sequence, the figures for `Cc1cccc(N2C(=O)c3cccc4c(N(C)CCO)ccc(c34)C2=O)c1` were under 0.42 µM and 34.9.
As for `CCCCCn1nc(-c2ccccc2)c2nc3ccccc3nc21`, the IC50 was 2.92 µM and the fold change came out at 33.5.
For `COc1ccccc1NC(=O)c1sc2nc(Cc3ccccc3)cc(C(F)(F)F)c2c1N`, in that order: 1.71 µM and 10.7.
For `CC(C)OC(=O)CC(=O)c1sc2nc3c(cc2c1N)CN(C)CC3`, the IC50 was > 54 µM (inactive) and the fold change is 1.29.
For `CCOC(=O)/C(C#N)=C/c1cc2ccccc2nc1N1CCCCC1`, in that order: 27.1 µM and 2.2.
For `CN1C=CC2=C(C#N)C(N)C(C#N)(C#N)C(c3ccccc3)C2C1` (configuration not stated), in that order: 4.53 µM and 3.69.
For `Cc1ccc(/C=c2\sc3nc(-c4cccnc4)nn3c2=O)cc1`, the IC50 is > 54 µM (inactive) and the fold change was 1.13.
Taken in the same sequence, the figures for `Cn1cc(/C=C2\SC(=S)N(NC(=O)c3cccc(Cl)c3)C2=O)c2ccccc21` were 4.3 µM and 8.23.
For `CCn1c(O)c(C=Nc2ccc(N3CCOCC3)cc2)c(=O)n(CC)c1=S`, in that order: 4.91 µM and 36.6.
As to `COC(=O)CN1C(=O)N(c2ccccc2)C(N(O)C(=O)Nc2ccccc2)C1(C)C` (configuration not stated), the IC50 was > 54 µM (inactive) and the fold change was 1.
Turning to `C=CCn1c(=O)/c(=C/c2cc(OC)c(OC)c(OC)c2)s/c1=C(/C#N)c1nc2ccccc2n1C`, the IC50 was 3.5 µM and the fold change is 15.9.
Taken in the same sequence, the figures for `CCOC(=O)c1oc2cc(OCC(=O)OC)ccc2c(=O)c1-c1ccc(OC)c(OC)c1` were > 54 µM (inactive) and 0.99.
For `CCN(CC)c1ccc(/C=C/C(=O)c2ccc(Br)cc2)cc1`, in that order: 2.64 µM and 31.1.
For `Cc1cc2c(cc1C)NC(c1c(C)n(C)n(-c3ccccc3)c1=O)C1=C(CC(C)(C)CC1=O)N2` (configuration not stated), in that order: 3.25 µM and 3.49.
Regarding `C(=N\N1CCOCC1)/c1nc(-c2ccccc2)n2ccccc12`, the concentration for half-maximal inhibition (IC50) is 26.6 µM and the fold change was found to be 4.71.
For `Cc1cc(C=C2C(=O)NC(=S)NC2=O)c(C)n1-c1ccc2c(c1)OCO2`, in that order: 43.5 µM (inactive) and 2.39.
With `CC1(c2ccc3noc(-c4ccc(F)cc4)c3c2)OCCO1`, the IC50 was 1.53 µM and the fold change turned out to be 3.53.
For `COC(=O)c1cc(N2CCN(C)CC2)nc2ccccc12`, in that order: 32.8 µM (inactive) and 1.52.
For `CCOCCCn1c(=NC(=O)c2cccs2)c(C#N)cc2c(=O)n3cccc(C)c3nc21`, in that order: 7.53 µM and 4.61.
For `CSC1=NSC2=NC(=O)/C(=C\c3coc4ccccc4c3=O)C(=N)N12`, in that order: 2.74 µM and 82.6.
As to `COc1ccc(Cc2nnc(NC(=O)Cc3cccs3)s2)cc1`, the IC50 is > 54 µM (inactive) and the fold change was 1.04.
For `CC(C)(C)c1ccc(OCC(=O)Nc2ccc3c4c(cccc24)C(=O)NC3=O)cc1`, in that order: > 54 µM (inactive) and 2.15.
For `CN1C(=O)N(C)c2ccc(C=O)c3cccc1c23`, in that order: 4.91 µM and 2.37.
Taken in the same sequence, the figures for `COc1ccc(/C=C2\SC(=O)N(CC(=O)NNC(=O)c3ccccc3O)C2=O)cc1` were > 54 µM (inactive) and 1.01.
Turning to `COc1ccc(NC(=O)CSc2nc3c(c(-c4cccs4)c2C#N)CN(C)CC3)cc1OC`, the IC50 was > 54 µM (inactive) and the fold change came out at 1.37.
Regarding `O=c1c(/C=N/Nc2ccccc2)c(Sc2nnnn2-c2ccccc2)nc2ccccn12`, the IC50 is 4.73 µM and the fold change worked out at 37.5.
For `Cc1ccc(NC2=Nc3ccccc3N3C2=Nc2c(c(C)nn2-c2ccccc2)C3c2ccc(O)c(O)c2)cc1` (configuration not stated), in that order: 3.36 µM and 2.84.
On to `N#CC1CC(c2ccc([N+](=O)[O-])cc2)=NN1c1ccc([N+](=O)[O-])cc1` (configuration not stated), for which the IC50 was 3.86 µM and the fold change was determined as 6.23.
In the case of `Cc1cc(=O)oc(C)c1C(=O)Nc1ccc2ncccc2c1`, the IC50 is 2.96 µM and the fold change was 5.89.
On to `Nc1ccc2nc3c(=O)[nH]c(=S)[nH]c3nc2c1`, for which the IC50 was under 0.42 µM and the fold change was 86.2.
Taken in the same sequence, the figures for `O=c1[nH]c(S)c(/C=C2\C=Nc3ccccc32)s1` were 2 µM and 3.56.
Turning to `Cn1c(=O)c(Nc2ccc(Cl)cc2)c2c3c(cccc31)C(=O)c1ccccc1-2`, the IC50 is under 0.42 µM and the fold change came out at 25.4.
For the molecule `O=C1NC(=O)[C@@H]2C3c4ccccc4C=CN3[C@H](C(=O)c3cccs3)[C@H]12` (some centres not stated), the IC50 is 4.84 µM and the fold change is 3.36.
For `CCN(CC)c1nc2ccccc2nc1C(C#N)C(=O)NCCc1ccccc1` (configuration not stated), in that order: 1.37 µM and 22.
For `O=C(N/N=C/c1cc(Cl)cc([N+](=O)[O-])c1O)NC12CC3CC(CC(C3)C1)C2`, the IC50 is > 54 µM (inactive) and the fold change was found to be 0.913.
Taken in the same sequence, the figures for `CCn1c(CSc2n[nH]c(N)n2)nc2cc(C(=O)O)ccc21` were 4.18 µM and 5.1.
For `O=C(c1nc2n(n1)C(c1ccc(Cl)cc1)C=C(c1ccccc1)N2)N1CCOCC1` (configuration not stated), in that order: 2.27 µM and 5.19.
`O=S(=O)([N-]c1nc2ccccc2nc1-[n+]1ccc(-c2ccncc2)cc1)c1ccccc1`: the IC50 was 9.13 µM and the fold change was determined as 3.54.
For `Cc1nn(C)c(C)c1N1C(=O)c2cccc3c(N)ccc(c23)C1=O`, in that order: under 0.42 µM and 203.
With `CCCCn1c(=O)[nH]c2nc3cc(NC(C)=O)ccc3nc2c1=O`, the IC50 is 3.91 µM and the fold change came to 3.87.
With `CCOC(=O)C1CCCN(c2nc3ccccc3nc2C(C#N)C(=O)NCc2ccccc2)C1` (configuration not stated), the IC50 was 8.82 µM and the fold change turned out to be 2.73.
In the case of `C#CCOC(=O)/C(=C/C=C/c1ccccc1)NC(=O)c1ccccc1`, the IC50 was > 54 µM (inactive) and the fold change was found to be 1.01.
Consider `Nn1c(SCC(=O)NC(=O)NCc2ccco2)nnc1-c1ccc(OC(F)F)cc1`, for which the IC50 was 31.1 µM (inactive) and the fold change turned out to be 1.09.
For `COc1ccc(C(=O)Nc2cccc(-c3cc4ccccc4oc3=O)c2)cc1[N+](=O)[O-]`, in that order: > 54 µM (inactive) and 0.607.
With `CCCCCn1c(N)c(-c2nc3ccccc3o2)c2c([N+](=O)[O-])nn(CC)c(=O)c21`, the IC50 is > 54 µM (inactive) and the fold change worked out at 0.747.
For `CN(C)c1ccc(/C=N/NC(=O)c2cnc3ccccc3c2)cc1`, in that order: 18.6 µM and 3.11.
Taken in the same sequence, the figures for `Nc1ccc2nc3c(=O)n(CCc4ccccc4)c(=O)[nH]c3nc2c1` were under 0.42 µM and 94.8.
Taken in the same sequence, the figures for `CCOC(=O)N1CCC(Nc2nc3ccccc3nc2NS(=O)(=O)c2ccc(Cl)cc2)CC1` were > 54 µM (inactive) and 1.39.
With `CCO[C@H]1OC(C(=O)N2CCCCCCC2)=C[C@@H](c2ccc(C(F)(F)F)cc2)[C@@H]1CCCO`, the IC50 was > 54 µM (inactive) and the fold change came to 0.95.
On to `O=C1C2CC=C(Cl)CC2C(=O)N1CCCCCCN1C(=O)C2CC=C(Cl)CC2C1=O` (configuration not stated), for which the IC50 is 6.72 µM and the fold change was 1.89.
In the case of `O=C(COC(=O)c1cccnc1)NC1CCCc2ccccc21` (configuration not stated), the IC50 was > 54 µM (inactive) and the fold change is 1.84.
For `COc1ccc(Cl)cc1CN1CCN(c2nc(C)cc(C)c2C#N)CC1`, in that order: 18.9 µM and 2.25.
With `O=C1c2ccccc2-c2ncnc3c(N4CCOCC4)cc(N4CCOCC4)c1c23`, the IC50 was > 54 µM (inactive) and the fold change stood at 1.1.
Taken in the same sequence, the figures for `C=CCN1CC(c2nc3ccccc3n2CCOc2ccccc2)CC1=O` (configuration not stated) were 34.2 µM (inactive) and 1.08.
For the molecule `COc1ccc(NC(=O)NC(=O)c2cc(OCC(F)(F)F)ccc2OCC(F)(F)F)cc1`, the IC50 was > 54 µM (inactive) and the fold change amounted to 0.943.
Regarding `O=C(N=Nc1c(O)[nH]c2ccccc12)c1cc(-c2ccc(F)cc2)n[nH]1`, the IC50 is > 54 µM (inactive) and the fold change amounted to 0.81.
Taken in the same sequence, the figures for `CC1(C)CC(=O)C2=C(C1)OC(N)=C(C#N)C2c1cc2c(cc1[N+](=O)[O-])OCO2` (configuration not stated) were 2.04 µM and 3.34.
For the molecule `CCN1CCN(CC(=O)N2N=C(c3cccs3)CC2c2ccc(OC)c(OC)c2)C(=O)C1=O` (configuration not stated), the IC50 was > 54 µM (inactive) and the fold change was 1.25.
For `CCn1nc(-c2ccccc2)nc2c(=O)n(C)c(=O)nc1-2`, in that order: 4.3 µM and 4.56.
Taken in the same sequence, the figures for `CCN(CC)C(=O)/C(=C\c1ccc(Br)cc1)NC(=O)c1ccccc1OC` were 4.67 µM and 1.15.
For `Cc1ccc2nc(SCC(=O)Nc3ccccc3N3CCOCC3)c(C#N)cc2c1`, in that order: > 54 µM (inactive) and 1.02.
For `Cn1c(/N=C/c2c(O)ccc3ccccc23)nc2ccccc21`, the IC50 is 3.17 µM and the fold change came to 41.9.
For `Cc1cc(NC(=O)Cc2cccs2)no1`, in that order: 16.9 µM and 1.09.
For `COc1ccccc1N1CCN(CC(O)COc2cccc3ccccc23)CC1` (configuration not stated), in that order: > 54 µM (inactive) and 0.917.
